Measurements: patent US20170217889A1, “4-SUBSTITUTED PYRIDINE-2,6-DICARBOXYLIC ACID DERIVATIVES AND METHOD OF PREPARING SAME” (Okinawa Institute of Science and Technology School …, priority 2014, published 2017)

assay: Cytotoxicity, K562 cell growth inhibition (Cell Counting Kit-8 / WST-8); assay type: cell-based; settings: human; K562 cells; 6-48 hrs incubation; WST-8 absorbance at 450 nm; read-out: Cytotoxic activity evaluated using K562 cells IC50
Description: K562 cells (American Type Culture Collection) were cultured in a culture medium containing 10% (v/v) fetal calf serum (FCS) (manufactures by Sigma) to logarithmic phase. The cells were seeded in 96-well microtiter plate at a density of 5000 cells/well in 100 μL cell culture medium and incubated at 37° C. and 5% CO2 in a humidified incubator overnight. The test compounds of various concentrations were added in a well at 10 fold concentration in 1/10 volume of medium without FCS. After 6-48 hrs incubation at 37° C. in the CO2 incubator, 10 uL solution of the viable cell counting reagent, Cell counting Kit-8 (5 mmol/L WST-8, 0.2 mmol/L 1-Methoxy PMS, 150 mmol/L NaCl) (manufactured by Dojindo) was added to each well, and reacted for 1 to 4 hours in the CO2 incubator. After the incubation, an absorbance of formazan, generated by reduction of WST-8, was determined at 450 nm using a microplate reader.
The assay readout is correlated with the viable cell numbers. Lower values correspond to high inhibition and greater values to low inhibition of the cell growth. To determine IC50 values (i.e. the concentration inhibiting the cell growth by 50%) of the compounds of formula I, several assays were made with a range of concentrations chosen empirically to give low, high and intermediate inhibition of the growth and determined using curve fitting software.

`CCOC(=O)c1cc(-c2ccc(Br)cc2)cc(C(=O)OCC)n1` and `CCOC(=O)c1cc(-c2ccc(Cl)cc2)cc(C(=O)OCC)n1` are within 1.5-fold of each other in IC50: 35 µM for the first, 50 µM for the second.

Compound `CCOC(=O)c1cc(C2CCCCC2)cc(C(=O)OCC)n1` has an IC50 of 51 µM.
